From patent US20240401000A1, “SUSPENSION-BASED 3D CULTURE METHOD FOR ORGANOIDS” (BRIGHAM YOUNG UNIVERSITY, priority 2021, published 2024)

Columns and labels:
[1] = tested on: human fluorescent lung organoid (hFLO); experiment: Bleomycin-induced fibrosis in hFLO with fasudil antifibrotic trial (histochemistry, immunohistochemistry, live confocal imaging); format: cell-based; conditions: for lumen area: bleomycin 20 μg mL−1 for 3 days from day 7, then 10 μM fasudil for 4 days, day 14; for collagen deposition (Masson staining) / pro-fibrotic expression (αSMA, fibronectin, PDGFRα; H-DAB): bleomycin 20 μg mL−1 for 3 days, then 10 μM fasudil for 4 days
Experimental: Cell aggregates were grown as described above for 7 days, after which the cell aggregates were treated with 20 μg mL 1 bleomycin (13877, Cayman Chemical Company, MI, USA, stock solution diluted in either PBS or DMSO). Media was changed after 3 days of culture with bleomycin (i.e., at day 10). At day 10, the organoids were weaned off the bleomycin insult and then treated with either 10 μM fasudil (B3523, ApexBio, TX, USA) or with DMSO (control, vehicle used for fasudil). The cultures were kept in treatment media for 4 more days with media changing every two days. Cell aggregates and media were collected and fixed as described above.
Histologically stained samples were imaged and processed with ImageJ software. First, images were converted to an 8-bit greyscale, after which a threshold was applied. The image was then processed five times iteratively with the dilate function to converging boundary cells. […] The “count particles” function was used to measure lumen characteristics. Data was processed in Microsoft Excel, lumen under the size of 200 μm2 were excluded in all analysis except the calculations of total lumen area and lumen percent arca.
The ratios of collagen to tissue in organoids were determined by analyzing images of Masson-Trichrome stained sections. These images were separated into red, blue, and green components using ImageJ using color deconvolution function. For the Masson staining, areas of the blue and red image channels were determined by thresholding and collagen deposition was determined as the ratio of blue area to red area (collagen to tissue). Intensity histograms were created using the ImageJ histogram function on the selected red area, and average pixel intensity was calculated from the histogram output in Microsoft Excel. For H-DAB, the target protein is the brown channel and the hematoxylin is the blue-purple channel.
There is a critical need for viable organotypic models for the human lung to model diseases including pulmonary fibrosis (PF). In order to fill this need, we induced fibrosis using bleomycin in our hFLO model. Bleomycin-induced PF is an extensively used animal-based model for fibrosis, despite significant cellular and molecular differences between mouse and human lungs. Moreover, therapeutics against PF are limited due to lack of organotypic lung models adapted for drug testing and screening. […] This therapy, however, has not yet been validated in a human lung model. Here, we grew hFLO for 7 days and induced fibrosis using 20 μg mL−1 bleomycin for 3 days, after which aggregates were treated with 10 μM fasudil, a ROCK inhibitor for 4 days to observe possible changes in fibrosis (FIG. 5A). […] In PF, there is an observed alveolar and bronchiolar epithelial cell death and fibroblast abundance. We observed that with bleomycin induction, there was a decrease in the epithelial A549 with an increase in fibroblast HFL1 population ([…]).

[2] = tested on: secreted factors from hFLO aggregates; experiment: Cytokine array of media from hFLO treatment groups; format: cell-based, human; conditions: media at day 14
Experimental: The organoid media from the three treatment groups were collected at day 14. The levels of cytokines secreted to the media were immediately evaluated using the Human Cytokine Array C1000 (AAH-CYT-1000-8, Ray Biotech, GA, USA) with minor modifications. Briefly, the membranes were blocked at room temperature for 30 minutes using the blocking buffer. The media from the organoids were transferred onto the membranes and incubated with gentle rocking overnight at 4° C. After washing, the membranes were incubated with the biotinylated antibody cocktail overnight at 4° C. After further washes, the membranes were probed with Streptavidin-CF680R (29072, Biotium, CA, USA 1:1000) for 1 hour at RT. The membranes were imaged using an Odyssey CLx imager (LI-COR, Cambridge, UK) at high resolution and a wavelength of 700 nm. The exported images of the membranes were quantified using gel analysis plugin on FIJI distribution of ImageJ (open source) under the GNU General Public License.
To further confirm the fibrosis in hFLO-bleomycin fibrotic model and the anti-fibrotic effects of fasudil, we collected culture media from the aggregates and performed a cytokine array using 120 common inflammatory factors.

[3] = tested on: A549, EAhy and HFL1 triculture aggregates; experiment: 3D triculture suspension culture with soluble ECM (self-patterning, growth, fibronectin); format: cell-based, human; conditions: 100 μg mL−1 soluble ECM; day 14
Experimental: To calculate the seeding ratios for each cell line, literature search led us to lung alveolar cell ratios to be around 24% epithelial, 30% endothelial, and 37% interstitial. By this, we simplified the seeding ratio to be roughly 1:2:2 (A549 epithelial: EAhy endothelial: HFL1 fibroblast). For suspension-based cultures, a seeding ratio of 1.0×104 to 1.0×10^5 total cells per aggregate was used and was divided to cach of the cell line using the ratio above. 100-200 μL of mixed cell suspension in 3D media or ECM supplemented 3D media were seeded into cach well of the 96-well ULA plate. […]
Triculture cell aggregates were grown for 14 days using either traditional force aggregation (FA) or as supplemented with 300 μg mL^−1 Matrigel®. […] Cell aggregate sections were then selected using the freeform selection tool and measured for area. […]
We then engineered a 3D triculture to model the lung alveolus and the morphological changes accompanying soluble ECM concentration. […] Cell seeding ratios were followed based on endogenous human lung cell composition which we determined to be roughly 1:2:2 (epithelial: interstitial: vascular) (Table S1).

[4] = bleomycin 20 μg mL−1, live 3D confocal volumetric analysis
[5] = of 120 common inflammatory factors

Row | Compound | epithelial A549 population [1, 4] | fibroblast HFL1 population [1, 4] | lumen area [1] | collagen deposition (Masson staining) [1] | pro-fibrotic expression (αSMA, fibronectin, PDGFRα; H-DAB) [1] | secretion of pro-angiogenic factors including FGF2 and VEGFA [2] | secretion of pro-inflammatory factors (CX3CL1, AREG, CCL3, IL4, IL2, AXL, EGF, IL6 among others) [2] | number of factors significantly increased (Control vs Bleomycin) [2, 5] [factors] | number of factors significantly changed (Fasudil vs Bleomycin) [2, 5] [factors] | number of factors significantly changed between control and fasudil treatment [2, 5] [factors] | aggregate structure (H&E) [3]
1 | bleomycin | decrease | increase | decreased lumen area | increased collagen deposition | increased | increased secretion | increase | 68 | – | – | –
2 | O=S(=O)(c1cccc2cnccc12)N1CCCNCC1 [fasudil] | – | – | rescued | decreased intensity | lowered | decreased | significantly decreased | – | 56 | 36 | –
3 | collagen I: rat tail collagen I (Sigma-Aldrich), used as soluble ECM supplement | – | – | – | – | – | – | – | – | – | – | predominantly compact cell clusters
